Assay results as given in patent EP4059493A1, “A CHLOROPHYLLIN CONTAINING PHARMACEUTICAL COMPOSITION FOR PREVENTION OF PATHOGENESIS OF CORONAVIRUS DISEASE” (priority 2021, dated 2022).
Like-named read-outs stand apart in the source and are kept apart here.

Assays:
[1] = test system: CD34+ hematopoietic stem and progenitor cells; experiment: Phase I clinical study: CD34+ hematopoietic stem and progenitor cells in blood by flow cytometry; format: in vivo, human; conditions: 750 mg tablets, fasting (Fig 2)
Method: (§1) An open label Phase I clinical study was conducted to assess pharmacodynamics of sodium copper Chlorophyllin in healthy adult, human male subjects under fasting conditions. The study was approved by Drug Controller General of India (DCGI). The trial is registered with the Clinical Trial Registry of India (CTRI/2018/09/015576). Five healthy male subjects were allowed to fast overnight and one Chlorophyllin tablet (750 mg) was administered to each subject by oral route along with ∼200 ml water. The subjects were given breakfast, lunch and snacks and a second tablet of Chlorophyllin (750 mg) was administered to each subject by oral route along with 200 ml water after 12 hr.
Blood sample at each time point was also collected in K2EDTA vacutainer tube and erythrocytes were lysed using RBC lysis buffer. Then cells were stained with fixable far red live dead reagent and PE-CD34 and FITC-CD45 antibodies at 4°C and fixed with 4% formaldehyde. The frequency of CD34+ hematopoietic stem and progenitor cells in the blood was determined by flow cytometry and FlowJo software.

[2] = test system: lymphocytes; experiment: Phase I clinical study: lymphocyte counts in blood; format: in vivo, human; conditions: Fig 4A
Method: as §1
(§2) Chlorophyllin tablets comprising Chlorophyllin or salts thereof (750 mg), were administered to healthy human subjects after overnight fasting. Blood samples were collected through an indwelling intravenous cannula (Venflon) placed in the fore arm vein of the subjects at different time intervals. Absolute neutrophil count (ANC) and white blood cell (WBC) counts were measured. Serum was separated and chemokine concentration in the serum was measured using cytometric bead array.

[3] = test system: white blood cell; experiment: Phase I clinical study: white blood cell (WBC) count in blood; format: in vivo, human; conditions: 8-16hr after first dose (750 mg), fasting
Method: as §1, §2

[4] = test system: healthy human subjects; experiment: Phase I clinical study: tolerability in healthy human subjects; format: in vivo; conditions: 750 mg given twice a day, all five human subjects
Method: as §1

[5] = test system: MIP-1α; experiment: Phase I clinical study: serum chemokine by cytometric bead array, MIP-1α; format: in vivo, human; conditions: 72hr after first dose
Method: as §1, §2

[6] = test system: SARS-CoV-2 virus; format: cell-based
[7] = test system: rats; experiment: Acute oral toxicity (oral gavage), rats; format: in vivo
Method: (§3) Different doses of Chlorophyllin (100 to 5000 mg/kg body weight) were given to mice and rats (6 males, 6 females) by oral gavage in an accredited facility for animal toxicity testing. […] There were no signs of toxicity in rodents treated with indicated doses of Chlorophyllin.

[8] = test system: mice; experiment: Acute oral toxicity (oral gavage), mice; format: in vivo
Method: as §3

[9] = test system: rats; experiment: 28 day repeat dose toxicity study; format: in vivo; conditions: daily dose of 1000 mg per kg body weight for 28 consecutive days
Method: as §3

[10] = test system: MCP-1; experiment: Phase I clinical study: serum chemokine by cytometric bead array, MCP-1; format: in vivo, human; conditions: 24hr after first dose
Method: as §1, §2

[11] = test system: MIP-1β; experiment: Phase I clinical study: serum chemokine by cytometric bead array, MIP-1β; format: in vivo, human; conditions: 24hr after first dose
Method: as §1, §2

[12] = test system: neutrophils; experiment: Phase I clinical study: absolute neutrophil count (ANC) in blood; format: in vivo, human
Method: as §1, §2

[13] = test system: Vero CCL-81 cells; conditions: 5µM Concentration (Fig 4B right panel)

For Sodium copper Chlorophyllin, the “relative decrease in percentage of CD34+ HPSCs in human blood as compared to pre-dose value” [1] was 50-85%, the “increase in the lymphocyte counts in human blood as compared to pre-dose value” [2] was “up to 30%” and the “increase in WBC count relative to pre-dose value” [3] was 12.8-26.5%. The “tolerability in human subjects” value [4] was “well tolerated”, the “relative decrease in MIP-1α in human blood as compared to pre-dose value” [5] was 12-21% and the “effect on SARS-CoV-2 virus multiplication” value ([6]; 0.1 micro molar concentration (Fig 4 right panel)) was “did not inhibit”. For the same substance, the “inhibition of SARS-CoV-2 multiplication” value ([6]; 5 micro-molar concentration, 72 hr (three days), Vero CCL-81 cells) was about 87%, the EC50 ([6]; 72 hr treatment, read-out: concentration of CHL required to inhibit the growth of SARS-CoV-2 virus by 50% (EC50)) was under 1 µM and the “concentration of chlorophyllin required for ∼90% inhibition of multiplication of SARS-CoV-2 virus” value ([6]; Fig 4) was “about 5 micro molar”. The EC50 ([6]; Vero CCL-81 cells, 72 hr, read-out: concentration of Chlorophyllin required for inhibition of 50% viral multiplication(EC50)) was under 1 µM, the “effect on multiplication of SARS-CoV-2 virus” value ([6]; less than 1 micro-molar concentration) was “did not significantly decrease” and the “tolerability of acute oral dose” value ([7]; rats, up to 5000 mg/kg body weight, oral gavage) was “well tolerated”. For the same substance, the LD50 dose ([7]; rodents (rats), proposed from absence of toxicity, morbidity or mortality) was “higher than 5000 mg/kg body weight”, the “tolerability of acute oral dose” value ([8]; mice, up to 5000 mg/kg body weight, oral gavage) was “well tolerated” and the LD50 dose ([8]; rodents (mice), proposed from absence of toxicity, morbidity or mortality) was “higher than 5000 mg/kg body weight”. The “tolerability in repeat dose toxicity study” value [9] was “well tolerated”, the “relative decrease in MCP-1 in human blood as compared to pre-dose value” [10] was 13-37% and the “relative decrease in MIP-1β in human blood as compared to pre-dose value” [11] was 11-55%. The “time after first dose at which ANC increase was observed” value ([12]; 750 mg, 4hr before second dose) was at most 8 h, the “increase in ANC relative to pre-dose value” ([12]; 8-16 hr after first dose (750 mg), fasting, five subjects) was 12.4-32.5% and the “cytotoxicity in the target cells” value [13] was “without causing cytotoxicity”.
